Measurements reported in ChEMBL document CHEMBL3885861, “Open TG-GATES”.

Organism: Rattus norvegicus
Assay: Open TG-GATES - Regimen: Single
Format: toxicity, organism-based, Sprague-Dawley
Parameters: regimen Single, gender Male, age 6 weeks
Details: in vivo, ip, 0 mg/kg, route intraperitoneal injection, dose 0 ug/Kg, dose level Control; for APTT / Bas / Eos / Fbg / Hb / Ht / Lym / MCH / MCHC / MCV / Mono / Neu / PT / Plat / RBC / Ret / WBC: tissue Blood; for KIDNEY_L / KIDNEY_R / KIDNEY_TOTAL: tissue Kidney; for LIVER: tissue Liver; for A/G / ALP / ALT / AST / BUN / CRE / Ca / Cl / DBIL / GLC / IP / K / LDH / Na / PL / RALB / TBIL / TC / TG / TP / gamma-GTP: tissue Plasma

H-KGDRLS-OH [TNF-ALPHA]
TERMINAL_BW (3 h): 200.6 g | APTT (3 h): 20 s | Bas (3 h): 0.4% | Eos (3 h): 0.8% | Fbg (3 h): 268.8 mg/dL | Hb (3 h): 13 g/dL | Ht (3 h): 40.3% | Lym (3 h): 73.8% | MCH (3 h): 21.6 pg | MCHC (3 h): 32.3% | MCV (3 h): 66.8 fL | Mono (3 h): 3.8% | Neu (3 h): 19.8% | PT (3 h): 15.4 s | Plat (3 h): 101.9 x10_4/uL | RBC (3 h): 603.2 x10_4/ul | Ret (3 h): 9.3% | WBC (3 h): 95.8 x10_2/uL | KIDNEY_L (3 h): 0.9 g | KIDNEY_R (3 h): 0.9 g | KIDNEY_TOTAL (3 h): 1.7 g | LIVER (3 h): 9.3 g | A/G (3 h): 0.9 | ALP (3 h): 1391 IU/L | ALT (3 h): 43 IU/L | AST (3 h): 74.8 IU/L | BUN (3 h): 10.8 mg/dL | CRE (3 h): 0.2 mg/dL | Ca (3 h): 10.8 mg/dL | Cl (3 h): 105.2 meq/L | DBIL (3 h): 0.012 mg/dL | GLC (3 h): 173.4 mg/dL | IP (3 h): 9.6 mg/dL | K (3 h): 4.1 meq/L | LDH (3 h): 73.2 IU/L | Na (3 h): 142.2 meq/L | PL (3 h): 149.2 mg/dL | RALB (3 h): 2.4 g/dL | TBIL (3 h): 0.06 mg/dL | TC (3 h): 79.8 mg/dL | TG (3 h): 61.2 mg/dL | TP (3 h): 5.3 g/dL | gamma-GTP (3 h): 1.2 IU/L | TERMINAL_BW (6 h): 199.4 g | APTT (6 h): 16.7 s | Bas (6 h): 0% | Eos (6 h): 0.2% | Fbg (6 h): 285 mg/dL | Hb (6 h): 13.1 g/dL | Ht (6 h): 40% | Lym (6 h): 68.8% | MCH (6 h): 21.3 pg | MCHC (6 h): 32.6% | MCV (6 h): 65.1 fL | Mono (6 h): 2.8% | Neu (6 h): 26.8% | PT (6 h): 15.6 s | Plat (6 h): 109.7 x10_4/uL | RBC (6 h): 615.4 x10_4/ul | Ret (6 h): 8.8% | WBC (6 h): 77.4 x10_2/uL | KIDNEY_L (6 h): 0.9 g | KIDNEY_R (6 h): 0.9 g | KIDNEY_TOTAL (6 h): 1.9 g | LIVER (6 h): 8.5 g | A/G (6 h): 0.9 | ALP (6 h): 1347.2 IU/L | ALT (6 h): 40 IU/L | AST (6 h): 73.6 IU/L | BUN (6 h): 9.4 mg/dL | CRE (6 h): 0.2 mg/dL | Ca (6 h): 10.8 mg/dL | Cl (6 h): 105 meq/L | DBIL (6 h): 0.01 mg/dL | GLC (6 h): 179.6 mg/dL | IP (6 h): 10.1 mg/dL | K (6 h): 4 meq/L | LDH (6 h): 58.8 IU/L | Na (6 h): 142.8 meq/L | PL (6 h): 146.4 mg/dL | RALB (6 h): 2.5 g/dL | TBIL (6 h): 0.058 mg/dL | TC (6 h): 78.8 mg/dL | TG (6 h): 44 mg/dL | TP (6 h): 5.3 g/dL | gamma-GTP (6 h): 1.4 IU/L | TERMINAL_BW (9 h): 195.6 g | APTT (9 h): 18 s | Bas (9 h): 0.4% | Eos (9 h): 0.4% | Fbg (9 h): 305 mg/dL | Hb (9 h): 13.1 g/dL | Ht (9 h): 40.5% | Lym (9 h): 68.4% | MCH (9 h): 20.9 pg | MCHC (9 h): 32.5% | MCV (9 h): 64.2 fL | Mono (9 h): 1.6% | Neu (9 h): 28.6% | PT (9 h): 15.4 s | Plat (9 h): 118.6 x10_4/uL | RBC (9 h): 631 x10_4/ul | Ret (9 h): 8.6% | WBC (9 h): 77.2 x10_2/uL | KIDNEY_L (9 h): 0.9 g | KIDNEY_R (9 h): 0.9 g | KIDNEY_TOTAL (9 h): 1.9 g | LIVER (9 h): 8.2 g | A/G (9 h): 0.9 | ALP (9 h): 1246.8 IU/L | ALT (9 h): 42.6 IU/L | AST (9 h): 81.6 IU/L | BUN (9 h): 7.6 mg/dL | CRE (9 h): 0.1 mg/dL | Ca (9 h): 10.4 mg/dL | Cl (9 h): 105.4 meq/L | DBIL (9 h): 0.004 mg/dL | GLC (9 h): 167.4 mg/dL | IP (9 h): 9.9 mg/dL | K (9 h): 3.5 meq/L | LDH (9 h): 61.4 IU/L | Na (9 h): 143.4 meq/L | PL (9 h): 135.8 mg/dL | RALB (9 h): 2.5 g/dL | TBIL (9 h): 0.058 mg/dL | TC (9 h): 74 mg/dL | TG (9 h): 33.6 mg/dL | TP (9 h): 5.4 g/dL | gamma-GTP (9 h): 1.2 IU/L | TERMINAL_BW (24 h): 211.3 g | APTT (24 h): 17.6 s | Bas (24 h): 0% | Eos (24 h): 1% | Fbg (24 h): 302 mg/dL | Hb (24 h): 13.3 g/dL | Ht (24 h): 40.5% | Lym (24 h): 78% | MCH (24 h): 21 pg | MCHC (24 h): 32.8% | MCV (24 h): 64 fL | Mono (24 h): 2.8% | Neu (24 h): 17% | PT (24 h): 15.1 s | Plat (24 h): 115.6 x10_4/uL | RBC (24 h): 634 x10_4/ul | Ret (24 h): 8.1% | WBC (24 h): 80.3 x10_2/uL | KIDNEY_L (24 h): 0.9 g | KIDNEY_R (24 h): 0.9 g | KIDNEY_TOTAL (24 h): 1.8 g | LIVER (24 h): 10.2 g | A/G (24 h): 0.8 | ALP (24 h): 1555.2 IU/L | ALT (24 h): 49 IU/L | AST (24 h): 69.8 IU/L | BUN (24 h): 14.8 mg/dL | CRE (24 h): 0.2 mg/dL | Ca (24 h): 11 mg/dL | Cl (24 h): 105.8 meq/L | DBIL (24 h): 0.008 mg/dL | GLC (24 h): 184.2 mg/dL | IP (24 h): 9.1 mg/dL | K (24 h): 4.2 meq/L | LDH (24 h): 76.2 IU/L | Na (24 h): 142 meq/L | PL (24 h): 172.2 mg/dL | RALB (24 h): 2.6 g/dL | TBIL (24 h): 0.038 mg/dL | TC (24 h): 93.2 mg/dL | TG (24 h): 98.2 mg/dL | TP (24 h): 5.6 g/dL | gamma-GTP (24 h): 1 IU/L
